Measured values: patent publication US20260209249A1, “NOVEL TRICYCLIC COMPOUND AS KRAS G12D INHIBITOR, AND USE THEREOF” (SK Biopharmaceuticals Co., priority 2022, published 2026)

Experiments:
[1] = molecular target: T1, GDP-KRAS G12D mutant protein (Homo sapiens, UniProt P01116, G12D); assay: Differential scanning fluorimetry (DSF) binding affinity to GDP-KRAS G12D mutant protein; settings: DSF thermal shift, 10 μM compound, 4 μg KRAS protein
T1 construct: purchased Daegu Gyeongbuk Medical Innovation Foundation (DGMIF), made to order
Method: (§1) Test Example 1: Measurement of Binding Affinity to KRAS G12D Mutant Protein The binding affinities of the compounds according to one embodiment of the present application to the KRAS G12D mutant protein were evaluated using differential scanning fluorimetry (DSF). Differential scanning fluorimetry (DSF) is a method used to study the stability of a protein upon binding to a compound. The experiment can be performed using a real-time PCR (RT-PCR) instrument, and is commonly employed as a screening technique for small-molecule compounds targeting specific proteins. As the temperature increases, folded proteins begin to unfold, during which a hydrophobic dye such as SYPRO Orange binds to the exposed hydrophobic regions of the protein, resulting in a measurable increase in fluorescence intensity (maximum absorption at 470 nm and maximum emission at 570 nm). Protein-compound binding is determined by the difference in the melting temperature (Tm) of the protein in the presence of the compound compared to the Tm in the absence of the compound, expressed as ΔTm. The binding affinity to the KRAS G12D mutant protein was measured using the Protein Thermal Shift Dye kit (#4461146, Applied Biosystems). The GDP-KRAS G12D mutant protein and GppNHp-KRAS G12D mutant protein used in the experiment were recombinant proteins synthesized by the Daegu Gyeongbuk Medical Innovation Foundation (DGMIF) upon request. The analysis of binding between the compound and the KRAS G12D mutant protein was performed according to the following reaction recipe: each test sample contained 4 μg of KRAS protein, 10 μM of the compound, and 2×SYPRO Orange dye. For the GDP-KRAS G12D protein samples, the buffer provided with the Protein Thermal Shift Dye kit was used, while for the GppNHp-KRAS G12D protein samples, 50 mM HEPES (pH 7.5) buffer was used. For the protein-compound binding reaction, the compound was added to the KRAS G12D mutant protein and reacted at room temperature for 30 minutes, followed by the addition of 2×SYPRO Orange dye. The temperature was increased to 25° C.-99° C. (0.05° C./s) using QuantStudiol RT-PCR instrument (Applied Biosystems), and fluorescence was measured using a ROX reporter with filters of 580±10 nm (excitation)/623±14 nm (emission). The measurements obtained at a compound concentration of 10 μM were analyzed using the Protein Thermal Shift Software program (version v1.4, Thermo Fisher Scientific), and the ΔTm (° C.) values, which indicate the binding affinity of the compound to the KRAS G12D mutant protein, were calculated. The DSF measurement results for the compounds according to one embodiment of the present application with respect to the KRAS G12D mutant protein are shown in Table 2.

[2] = molecular target: T2, GppNHp-KRAS G12D mutant protein (Homo sapiens, UniProt P01116, G12D); assay: Differential scanning fluorimetry (DSF) binding affinity to GppNHp-KRAS G12D mutant protein; settings: DSF thermal shift, 10 μM compound, 4 μg KRAS protein, 50 mM HEPES (pH 7.5)
T2 construct: purchased Daegu Gyeongbuk Medical Innovation Foundation (DGMIF), made to order
Method: as §1

SMILES: Cc1cc2c(o1)c(-c1c(Cl)c(C)cc3[nH]ncc13)c(F)c1nc(OC[C@@]34CCCN3C[C@H](F)C4)nc(N3C[C@H]4CC[C@@H](C3)N4)c12 [Example 51, 1-((1 R,5S)-3,8-diazabicyclo[3.2.1]octan-3-yl)-6-(5-chloro-6-methyl-1H-indazol-4-yl)-5-fluoro-3-(((2R,7aS)-2-fluorotetrahydro-1H-pyrrolizin-7a(5H)-yl)methoxy)-8-methylfuro[3,2-f]quinazoline]
- GDP-KRAS G12D (ΔTmD, ° C.) [1]: 4.73 °C
- GppNHp-KRAS G12D (ΔTmD, ° C.) [2]: 1.32 °C

SMILES: Nc1nc2c(-c3cc4nc(OC[C@@]56CCCN5C[C@H](F)C6)nc(N5C[C@H]6CC[C@@H](C5)N6)c4n4ccnc34)ccc(F)c2s1 [Example 25, 4-(1-((1R,5S)-3,8-diazabicyclo[3.2.1]octan-3-yl)-3-(((2R,7aS)-2-fluorotetrahydro-1H-pyrrolizin-7a(5H)-yl)methoxy)imidazo[1′,2′:1,6]pyrido[3,2-d]pyrimidin-6-yl)-7-fluorobenzo[d]thiazol-2-amine]
- GDP-KRAS G12D (ΔTmD, ° C.) [1]: 0.27 °C
- GppNHp-KRAS G12D (ΔTmD, ° C.) [2]: −0.17 °C

SMILES: C#Cc1c(F)ccc2cc(O)cc(-c3cc4nc(OC[C@]56CCCN5CC(=C)C6)nc(N5C[C@H]6CC[C@@H](C5)N6)c4n4ccnc34)c12 [Example 33, 4-(1-((1R,5S)-3,8-diazabicyclo[3.2.1]octan-3-yl)-3-(((R)-2-methylenetetrahydro-1H-pyrrolizin-7a(5H)-yl)methoxy)imidazo[1′,2′:1,6]pyrido[3,2-d]pyrimidin-6-yl)-5-ethynyl-6-fluoronaphthalen-2-ol]
- GDP-KRAS G12D (ΔTmD, ° C.) [1]: 7.42 °C
- GppNHp-KRAS G12D (ΔTmD, ° C.) [2]: 3.59 °C

SMILES: CCc1c(F)ccc2cc(O)cc(-c3cc4nc(OC[C@@]56CCCN5CC(=C(F)F)C6)nc(N5C[C@H]6CC[C@@H](C5)N6)c4n4ccnc34)c12 [Example 109, 4-(1-((1 R,5S)-3,8-diazabicyclo[3.2.1]octan-3-yl)-3-(((S)-2-(difluoromethylene)tetrahydro-1H-pyrrolizin-7a(5H)-yl)methoxy)imidazo[1′,2′:1,6]pyrido[3,2-d]pyrimidin-6-yl)-5-ethyl-6-fluoronaphthalen-2-ol]
- GDP-KRAS G12D (ΔTmD, ° C.) [1]: 10.51 °C
- GppNHp-KRAS G12D (ΔTmD, ° C.) [2]: 4.28 °C

SMILES: C#Cc1c(F)ccc2cc(O)cc(-c3c(F)c4nc(OC[C@@]56CCCN5CC(=C(F)F)C6)nc(N5CC6CCC(C5)N6)c4c4cn(C)nc34)c12 [Example 91, 4-(9-((1R,5S)-3,8-diazabicyclo[3.2.1]octan-3-yl)-7-(((S)-2-(difluoromethylene)tetrahydro-1H-pyrrolizin-7a(5H)-yl)methoxy)-5-fluoro-2-methyl-2H-pyrazolo[4,3-n]quinazolin-4-yl)-5-ethynyl-6-fluoronaphthalen-2-ol]
- GDP-KRAS G12D (ΔTmD, ° C.) [1]: −0.16 °C
- GppNHp-KRAS G12D (ΔTmD, ° C.) [2]: −0.45 °C

SMILES: CCc1c(F)ccc2cc(O)cc(-c3cc4nc(OC[C@@]56CCCN5CC(=C(F)F)C6)nc(N5[C@@H]6CC[C@H]5CNC6)c4n4ccnc34)c12 [Example 107, 4-(1-((1 R,5S)-3,8-diazabicyclo[3.2.1]octan-8-yl)-3-(((S)-2-(difluoromethylene)tetrahydro-1H-pyrrolizin-7a(5H)-yl)methoxy)imidazo[1′,2′:1,6]pyrido[3,2-d]pyrimidin-6-yl)-5-ethyl-6-fluoronaphthalen-2-ol]
- GDP-KRAS G12D (ΔTmD, ° C.) [1]: 8.91 °C
- GppNHp-KRAS G12D (ΔTmD, ° C.) [2]: 4.32 °C

SMILES: C#Cc1c(F)ccc2cc(O)cc(-c3cc4nc(OCC5(CN6CC[C@@H](F)C6)CC5)nc(N5C[C@H]6CC[C@@H](C5)N6)c4n4ccnc34)c12 [Example 30, 4-(1-((1R,5S)-3,8-diazabicyclo[3.2.1]octan-3-yl)-3-((1-(((R)-3-fluoropyrrolidin-1-yl)methyl)cyclopropyl)methoxy)imidazo[1′,2′:1,6]pyrido[3,2-d]pyrimidin-6-yl)-5-ethynyl-6-fluoronaphthalen-2-ol]
- GDP-KRAS G12D (ΔTmD, ° C.) [1]: 8.12 °C
- GppNHp-KRAS G12D (ΔTmD, ° C.) [2]: 2.81 °C

SMILES: C#Cc1c(F)ccc2cc(O)cc(-c3cc4nc(OCC5(CN6CCCC6)CC5)nc(N5C[C@H]6CC[C@@H](C5)N6)c4n4ccnc34)c12 [Example 35, 4-(1-((1R,5S)-3,8-diazabicyclo[3.2.1]octan-3-yl)-3-((1-(pyrrolidin-1-ylmethyl)cyclopropyl)methoxy)imidazo[1′,2′:1,6]pyrido[3,2-d]pyrimidin-6-yl)-5-ethynyl-6-fluoronaphthalen-2-ol]
- GDP-KRAS G12D (ΔTmD, ° C.) [1]: 8.91 °C
- GppNHp-KRAS G12D (ΔTmD, ° C.) [2]: 2.68 °C

SMILES: C#Cc1c(F)ccc2cc(O)cc(-c3cc4nc(OC[C@]56CC(=C)CN5C[C@@H](F)C6)nc(N5C[C@H]6CC[C@@H](C5)N6)c4n4ccnc34)c12 [Example 32, 4-(1-((1R,5S)-3,8-diazabicyclo[3.2.1]octan-3-yl)-3-(((2S,7aR)-2-fluoro-6-methylenetetrahydro-1H-pyrrolizin-7a(5H)-yl)methoxy)imidazo[1′,2′:1,6]pyrido[3,2-d]pyrimidin-6-yl)-5-ethynyl-6-fluoronaphthalen-2-ol]
- GDP-KRAS G12D (ΔTmD, ° C.) [1]: 9.05 °C
- GppNHp-KRAS G12D (ΔTmD, ° C.) [2]: 4.04 °C

SMILES: Cc1cc2c(o1)c(-c1nc(N)ccc1C(F)(F)F)c(F)c1nc(OC[C@@]34CCCN3C[C@H](F)C4)nc(N3C[C@H]4CC[C@@H](C3)N4)c12 [Example 50, 6-(1-((1R,5S)-3,8-diazabicyclo[3.2.1]octan-3-yl)-5-fluoro-3-(((2R,7aS)-2-fluorotetrahydro-1H-pyrrolizin-7a(5H)-yl)methoxy)-8-methylfuro[3,2-f]quinazolin-6-yl)-5-(trifluoromethyl)pyridin-2-amine]
- GDP-KRAS G12D (ΔTmD, ° C.) [1]: 0.58 °C
- GppNHp-KRAS G12D (ΔTmD, ° C.) [2]: −0.31 °C

SMILES: C#Cc1c(F)ccc2cc(O)cc(-c3cc4nc(OCC5(CN6CCC[C@H](F)C6)CC5)nc(N5C[C@H]6CC[C@@H](C5)N6)c4n4ccnc34)c12 [Example 31, 4-(1-((1R,5S)-3,8-diazabicyclo[3.2.1]octan-3-yl)-3-((1-(((S)-3-fluoropiperidin-1-yl)methyl)cyclopropyl)methoxy)imidazo[1′,2′:1,6]pyrido[3,2-d]pyrimidin-6-yl)-5-ethynyl-6-fluoronaphthalen-2-ol]
- GDP-KRAS G12D (ΔTmD, ° C.) [1]: 7.82 °C
- GppNHp-KRAS G12D (ΔTmD, ° C.) [2]: 2.22 °C

SMILES: C#Cc1c(F)ccc2cc(N)cc(-c3cc4nc(OC[C@@]56CCCN5CC(=C(F)F)C6)nc(N5[C@@H]6CC[C@H]5CNC6)c4n4ccnc34)c12 [Example 108, 4-(1-((1 R,5S)-3,8-diazabicyclo[3.2.1]octan-8-yl)-3-(((S)-2-(difluoromethylene)tetrahydro-1H-pyrrolizin-7a(5H)-yl)methoxy)imidazo[1′,2′:1,6]pyrido[3,2-d]pyrimidin-6-yl)-5-ethynyl-6-fluoronaphthalen-2-amine]
- GDP-KRAS G12D (ΔTmD, ° C.) [1]: 8.47 °C
- GppNHp-KRAS G12D (ΔTmD, ° C.) [2]: 5.36 °C

SMILES: Cc1cc2c(o1)c(-c1ccc(F)c3sc(N)nc13)c(F)c1nc(OC[C@@]34CCCN3C[C@H](F)C4)nc(N3C[C@H]4CC[C@@H](C3)N4)c12 [Example 55, 4-(1-((1R,5S)-3,8-diazabicyclo[3.2.1]octan-3-yl)-5-fluoro-3-(((2R,7aS)-2-fluorotetrahydro-1H-pyrrolizin-7a(5H)-yl)methoxy)-8-methylfuro[3,2-n]quinazolin-6-yl)-7-fluorobenzo[d]thiazol-2-amine]
- GDP-KRAS G12D (ΔTmD, ° C.) [1]: 3.24 °C
- GppNHp-KRAS G12D (ΔTmD, ° C.) [2]: 1.91 °C
